{"source": "patent US9827222B2", "about": "“Treating or preventing nephrogenic diabetes insipidus” (Emory University, priority 2013, dated 2017)", "key": {"[1]": {"assay": "Urine osmolality in lithium-treated mice", "type": "in vivo", "settings": "mice fed lithium for 14 days; 4 h after IP injection of metformin", "from_the_text": "(§1) Rats with normal water (blue); water loaded for 1 week (red). Mice fed lithium for 14 days (green); V2R−/− mice (brown)."}, "[2]": {"tested_on": "AQP2", "assay": "AQP2 phosphorylation in rat inner medulla", "from_the_text": "Left: immune-precipitated 32P-AQP2; Right: phospho S256-AQP2."}, "[3]": {"tested_on": "AQP2", "assay": "Apical plasma membrane AQP2 in IMCDs of treated rats", "type": "in vivo, rat", "settings": "4 h, 100 mg/kg IP", "from_the_text": "400×, HRP/Dab with hematoxylin stained nuclei."}, "[4]": {"tested_on": "UT-A1", "assay": "UT-A1 phosphorylation in rat inner medullary tissue", "settings": "AMPK stimulation with metformin, p<0.05", "from_the_text": "(§2) Preliminary data indicates AMPK phosphorylates both the UT-A1 and AQP2 proteins, both in vitro (FIG. 3) and in native rat IMCD suspensions (FIG. 4). […]. Thus, AMPK may mimic by which vasopressin increases urine concentrating ability."}, "[5]": {"assay": "Urine osmolality in V2R knock-out mice (model of congenital NDI)", "type": "in vivo", "settings": "4 h after IP injection of metformin", "from_the_text": "as §1, §2"}, "[6]": {"assay": "Urine osmolality in rats after IP metformin", "type": "in vivo, rat", "settings": "rats with normal water or water loaded for 1 week; 4 h after IP injection of metformin", "from_the_text": "as §1"}, "[7]": {"tested_on": "UT-A1-mIMCD3 cells", "assay": "cAMP in UT-A1-mIMCD3 cells", "type": "cell-based", "settings": "1 μM vasopressin (AVP) for 10 min; p<0.05", "procedure": "FIG. 5 illustrates cAMP in UT-A1-mIMCD3 cells after treatment with 1 μM vasopressin (AVP) for 10 min, *=p<0.05."}}}
{"smiles": "CN(C)C(=N)N=C(N)N", "note": "[metformin]", "values": [{"measurement": "urine osmolality", "setting": "[1]", "value": "increases"}, {"measurement": "pS256-AQP2", "setting": "[2]; rat inner medulla, 10^-4 M metformin with V2R inhibited using 10^-7 M tolvaptan", "value": "increases"}, {"measurement": "AQP2 phosphorylation", "setting": "[2]; rat inner medullary tissue, AMPK stimulation with metformin, p<0.05", "value": "undergo phosphorylation"}, {"measurement": "apical plasma membrane AQP2", "setting": "[3]", "value": "increases"}, {"measurement": "UT-A1 phosphorylation", "setting": "[4]", "value": "undergo phosphorylation"}, {"measurement": "urine osmolality", "setting": "[5]", "value": "increases"}, {"measurement": "urine osmolality", "setting": "[6]", "value": "increases"}]}
{"smiles": "Cc1ccccc1C(=O)Nc1ccc(C(=O)N2CCCC(O)c3cc(Cl)ccc32)c(C)c1", "note": "(stereo not drawn) [tolvaptan]", "values": [{"measurement": "AQP2 phosphorylation (immune-precipitated 32P-AQP2)", "setting": "[2]; native rat IMCDs, 10^-7 M tolvaptan & 10^-4 M metformin, compared to metformin alone", "value": "increased"}]}
{"smiles": "NC(=O)CC[C@@H]1NC(=O)[C@H](Cc2ccccc2)NC(=O)[C@H](Cc2ccc(O)cc2)NC(=O)[C@@H](N)CSSC[C@@H](C(=O)N2CCC[C@H]2C(=O)N[C@@H](CCCN=C(N)N)C(=O)NCC(N)=O)NC(=O)[C@H](CC(N)=O)NC1=O", "note": "[Vasopressin, vasopressin]", "values": [{"measurement": "cAMP", "setting": "[7]", "value": "increases"}]}
